Holding throughout (assay type): cell-based
The target of test [1] is T1, GHSR-1a (HEK293/GHSR1a cell line) (Homo sapiens, UniProt Q92847).
T1 construct: expressed in transfected cells; host or cells: HEK293/GHSR1a cell line
Put plainly: Ghrelin antagonist potency (IC50) with calcium FLIPR assay, ghrelin 10 nM. The method in brief: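 In this assay, compound alone assesses agonism, while compound co-added with ghrelin at 10 nM assesses antagonism. In both modes the calcium-dye signal is tracked for 2 min from t=20 sec.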

Test [2] has as its target T2, recombinant human ghrelin receptor (HEK293/GRLN) (Homo sapiens, UniProt Q92847).
T2 construct: expressed in transfected cells
Briefly: Ghrelin inverse agonist potency (EC50) with IP-1 (IP-One HTRF) assay. Particulars: IP-1 assay. The method in brief: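 IP-1 accumulation was measured by HTRF (IP1-d2/Tb-cryptate, 620/665 nm read after 1 hour at room temperature) following 1 hour of compound treatment at 37° C. Cells were HEK293 stably expressing human ghrelin receptor, plated a day earlier on Matrigel. Inverse agonist potency was reported as EC50.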
A general note: TR-FRET usually uses a lanthanide donor and a delayed reading to cut background.

The target in test [3] is T1, GHSR-1a (HEK293/GHSR1a cell line). Put plainly: Ghrelin agonist potency (EC50) with calcium FLIPR assay. The method, then:
Evaluation of Ghrelin Agonist (EC50) and Antagonist Potency (IC50) with Calcium FLIPR Assay:
The intracellular calcium assay was carried out in a 384-well format FLIPR™ (Molecular Device) HEK293/GHSR1a cell line. Cells were seeded 24 hr prior to the experiments at an optimal density per well. Preincubation with selected calcium dye lasted for 30-60 min at room temperature or 37° C. Test compounds, dissolved in DMSO, were added at the appropriate time and incubated for 15 min followed by the addition of ghrelin with FlexStation or FLIPR. Relative fluorescence was monitored by the FLIPR™ Molecular Device. EC50 and IC50 values were estimated from dose-response data using GraphPad Prism software. To check for GHSR-1a agonism, the compound was added at t=20 sec. and the calcium response was followed for 2 minutes. To check for GHSR-1a antagonism, the compound and Ghrelin (10 nM) were added to the cells at t=20 sec. and the calcium response was measured for 2 minutes. The potency of the antagonist was calculated by its ability to reduce the ghrelin response. Dose-response curves were made for relevant antagonists.

The mark [4] stands for this setting: HEK293/GHSR1a, ghrelin 10 nM, read-out: Activity IC50 (ghrelin antagonist potency).
[5] abbreviates: HEK293/GHSR1a, read-out: Activity EC50/EMax: EC50 (ghrelin agonist potency).

Where two headings read alike, the source gives them in different places. Where only a bound is given, the exact number is not on record here.

One may read the IC50 as the concentration that gives 50% inhibition.

T1 sequence (Q92847 whole entry): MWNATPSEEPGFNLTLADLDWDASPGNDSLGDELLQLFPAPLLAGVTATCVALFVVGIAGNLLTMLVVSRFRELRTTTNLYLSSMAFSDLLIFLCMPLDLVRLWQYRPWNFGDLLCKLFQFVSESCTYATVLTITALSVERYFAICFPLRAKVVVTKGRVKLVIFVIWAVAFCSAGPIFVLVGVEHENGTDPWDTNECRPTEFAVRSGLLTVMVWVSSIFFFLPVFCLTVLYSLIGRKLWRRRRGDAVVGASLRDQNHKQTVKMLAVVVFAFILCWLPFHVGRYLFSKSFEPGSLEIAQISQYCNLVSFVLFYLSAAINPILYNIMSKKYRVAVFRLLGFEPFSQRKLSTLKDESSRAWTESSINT
T2 sequence (Q92847 whole entry): as above

For `COc1cc(S(=O)(=O)Cc2ccc3c(c2)CCNC3)ccc1NC(=O)N(C)C(C)c1cccc(Cl)c1Cl` (stereo not shown) [H1443, 1-(1-(2,3-dichlorophenyl)ethyl)-3-(2-methoxy-4-(((1,2,3,4-tetrahydroisoquinolin-6-yl)methyl)sulfonyl)phenyl)-1-methylurea], the IC50 in test [1] (setting [4]) was found to be 0.068 µM. Besides, the EC50 is 0.0858 µM in test [2] (HEK293/GRLN, read-out: Activity EC50 (ghrelin inverse agonist potency)) and > 30 µM in test [3] (setting [5]).

Turning to `CC(NC(=O)Nc1ccc(S(=O)(=O)Cc2ccc3c(c2)CNC3)c(-c2ncco2)c1)c1ccccc1` (stereo not shown) [H1507, 1-(4-((isoindolin-5-ylmethyl)sulfonyl)-3-(oxazol-2-yl)phenyl)-3-(1-phenylethyl)urea], in test [1] (ghrelin antagonist potency, read-out: Activity IC50), the IC50 was 0.0129 µM. In addition, the EC50 in test [2] (ghrelin inverse agonist potency, read-out: Activity EC50) is 0.0197 µM; in test [3] (ghrelin agonist potency, read-out: Activity EC50/EMax) it was > 30 µM.

As to `CCN(CC)c1ccc(CS(=O)(=O)c2ccc(NC(=O)NC(C)c3cccc(Cl)c3Cl)cc2)cc1` (stereo not shown) [H1360, 1-(1-(2,3-dichlorophenyl)ethyl)-3-(4-((4-(diethylamino)benzyl)sulfonyl)phenyl)urea], the IC50 in test [1] (setting [4]) was > 30 µM. Besides, the EC50 in test [3] (setting [5]) was > 30 µM.

Turning to `C[C@H](NC(=O)Nc1ccc(S(=O)(=O)Cc2ccc3c(c2)C2CCC3N2)cc1)c1ccccc1` (stereo partly drawn) [H1324, 1-((S)-1-phenylethyl)-3-(4-(((1,2,3,4-tetrahydro-1,4-epiminonaphthalen-6-yl)methyl)sulfonyl)phenyl)urea], in test [1] (setting [4]), the IC50 was found to be 10.5 µM. Besides, in test [3] (setting [5]), the EC50 was > 30 µM.

`C[C@H](NC(=O)Nc1ccc(S(=O)(=O)Nc2ccc3c(c2)CCN(C)C3)cc1)c1ccccc1` [H1315, (S)-N-(2-methyl-1,2,3,4-tetrahydroisoquinolin-6-yl)-4-(3-(1-phenylethyl)ureido) benzenesulfonamide]: in test [1] (setting [4]), the IC50 was 0.301 µM. The EC50 in test [3] (setting [5]) was > 30 µM.

As to `CCN(CC)CCCS(=O)(=O)c1ccc(NC(=O)NC(C)c2cccc(Cl)c2Cl)cc1` (stereo not shown) [H1361, 1-(1-(2,3-dichlorophenyl)ethyl)-3-(4-((3-(diethylamino)propyl)sulfonyl)phenyl)urea], in test [1] (setting [4]), the IC50 was 1.61 µM. Besides, the EC50 in test [3] (setting [5]) is > 30 µM.

As to `CC(NC(=O)Nc1ccc(S(=O)(=O)N2CC3CNCC3C2)cc1)c1ccccc1` (stereo not shown) [H1277, 1-(4-((hexahydropyrrolo[3,4-c]pyrrol-2(1H)-yl)sulfonyl)phenyl)-3-(1-phenylethyl)urea], the IC50 in test [1] (setting [4]) is 8.76 µM. The EC50 in test [3] (setting [5]) was > 30 µM.

For the compound `CC(c1ccccc1)N(C)C(=O)Nc1ccc(S(=O)(=O)Cc2ccc3c(c2)CNC3)cc1F` (stereo not shown) [H1399, 3-(2-fluoro-4-((isoindolin-5-ylmethyl)sulfonyl)phenyl)-1-methyl-1-(1-phenylethyl)urea], the IC50 in test [1] (setting [4]) was 2.06 µM. In addition, the EC50 in test [3] (setting [5]) was > 30 µM.

For `CC(NC(=O)Nc1ccc(S(=O)(=O)Cc2cccc(CN3CCCC3)c2)cc1)c1ccccc1` (stereo not shown) [H1318, 1-(1-phenylethyl)-3-(4-((3-(pyrrolidin-1-ylmethyl)benzyl)sulfonyl)phenyl)urea], the IC50 in test [1] (setting [4]) is 5.31 µM. The EC50 in test [3] (setting [5]) is > 30 µM.

For the compound `CC(NC(=O)Nc1ccc(S(=O)(=O)Cc2ccc3c(c2)C(N2CCCC2)CC3)cc1)c1ccccc1` (stereo not shown) [H1294, 1-(1-phenylethyl)-3-(4-(((3-(pyrrolidin-1-yl)-2,3-dihydro-1H-inden-5-yl)methyl)sulfonyl)phenyl)urea], the IC50 in test [1] (setting [4]) was 3.32 µM. In addition, the EC50 in test [3] (setting [5]) was 12.9 µM.

For the compound `C[C@H](NC(=O)Nc1ccc(S(=O)(=O)Cc2ccc(CN3CCC(O)C3)cc2)cc1)c1ccccc1` (stereo partly drawn) [H1313, 1-(4-((4-((3-hydroxypyrrolidin-1-yl)methyl)benzyl)sulfonyl)phenyl)-3-((S)-1-phenylethyl)urea], the IC50 in test [1] (setting [4]) is 1.46 µM. The EC50 in test [3] (setting [5]) was > 30 µM.

For the compound `CC1Cc2cc(CS(=O)(=O)c3ccc(NC(=O)NC(C)c4cccc(Cl)c4Cl)c(F)c3)ccc2CN1` (stereo not shown) [H1401, 1-(1-(2,3-dichlorophenyl)ethyl)-3-(2-fluoro-4-(((3-methyl-1,2,3,4-tetrahydroisoquinolin-6-yl)methyl)sulfonyl)phenyl)urea], the half-inhibitory concentration (IC50) in test [1] (setting [4]) was 0.0034 µM. In test [3] (setting [5]), the EC50 is > 30 µM.

In the case of `C[C@H](NC(=O)Nc1ccc(S(=O)(=O)Cc2ccc(C3CCCN3)cc2)cc1)c1ccccc1` (stereo partly drawn) [H1328, 1-((S)-1-phenylethyl)-3-(4-((4-(pyrrolidin-2-yl)benzyl)sulfonyl)phenyl)urea], the IC50 in test [1] (setting [4]) amounted to 0.546 µM. Besides, the EC50 in test [3] (setting [5]) was > 30 µM.

Regarding `CC1Cc2cc(CS(=O)(=O)c3ccc(NC(=O)N(C)C(C)c4cccc(Cl)c4Cl)c(F)c3)ccc2CN1` (stereo not shown) [H1402, 1-(1-(2,3-dichlorophenyl)ethyl)-3-(2-fluoro-4-(((3-methyl-1,2,3,4-tetrahydroisoquinolin-6-yl)methyl)sulfonyl)phenyl)-1-methylurea], the half-maximal inhibitory concentration (IC50) in test [1] (setting [4]) came to 0.075 µM. For the same compound, the EC50 in test [3] (setting [5]) was > 30 µM.

As to `COc1cc(N2C[C@@H](C)N[C@@H](C)C2)ccc1NS(=O)(=O)c1ccc(NC(=O)N[C@H](C)c2cccc(Cl)c2Cl)cc1` [H1362, 4-(3-((R)-1-(2,3-dichlorophenyl)ethyl)ureido)-N-(4-((cis)-3,5-dimethylpiperazin-1-yl)-2-methoxyphenyl) benzenesulfonamide], the IC50 in test [1] (setting [4]) was 1.55 µM. The EC50 in test [3] (setting [5]) is > 30 µM.

Turning to `CC(NC(=O)Nc1ccc(S(=O)(=O)Cc2ccncc2)cc1)c1ccccc1` (stereo not shown) [H1280, 1-(1-phenylethyl)-3-(4-((pyridin-4-ylmethyl)sulfonyl)phenyl)urea], the half-maximal inhibitory concentration (IC50) in test [1] (setting [4]) worked out at 0.905 µM. Also, in test [3] (setting [5]), the EC50 was > 30 µM.

In the case of `CC1Cc2cc(CS(=O)(=O)c3ccc(NC(=O)N[C@@H](C)c4cccc(Cl)c4Cl)cc3)ccc2CN1` (stereo partly drawn) [H1403, 1-((S)-1-(2,3-dichlorophenyl)ethyl)-3-(4-(((3-methyl-1,2,3,4-tetrahydroisoquinolin-6-yl)methyl)sulfonyl)phenyl)urea], the IC50 in test [1] (setting [4]) is 0.0015 µM. In addition, in test [3] (setting [5]), the EC50 was > 30 µM.

Consider `CC(NC(=O)Nc1ccc(S(=O)(=O)Cc2ccc3nn(C)cc3c2)cc1)c1ccccc1` (stereo not shown) [H1329, 1-(4-(((2-methyl-2H-indazol-5-yl)methyl)sulfonyl)phenyl)-3-(1-phenylethyl)urea], for which the IC50 in test [1] (setting [4]) is > 30 µM. For the same compound, the EC50 in test [3] (setting [5]) was > 30 µM.

Regarding `CCc1ccc(Cl)c(C(=O)NC(=O)Nc2ccc(S(=O)(=O)Nc3ccc4c(c3)CNC4)cc2)c1` [H1259, 2-chloro-5-ethyl-N-((4-(N-(isoindolin-5-yl)sulfamoyl)phenyl)carbamoyl) benzamide], the IC50 in test [1] (setting [4]) turned out to be 0.272 µM. In addition, the EC50 in test [3] (setting [5]) was > 30 µM.

Regarding `CC(NC(=O)Nc1ccc(S(=O)(=O)CC2CCCN(CC3CCCO3)C2)cc1)c1cccc(Cl)c1Cl` (stereo not shown) [H1375, 1-(1-(2,3-dichlorophenyl)ethyl)-3-(4-(((1-((tetrahydrofuran-2-yl)methyl)piperidin-3-yl)methyl)sulfonyl)phenyl)urea], the IC50 in test [1] (setting [4]) is > 30 µM. Moreover, the EC50 in test [3] (setting [5]) was > 30 µM.

Take `C[C@H](NC(=O)Nc1ccc2c(c1)CC(c1ccc3c(c1)CN(C)C3)S2(=O)=O)c1ccccc1` (stereo partly drawn) [H1285, 1-(2-(2-methylisoindolin-5-yl)-1,1-dioxido-2,3-dihydrobenzo[b]thiophen-5-yl)-3-((S)-1-phenylethyl)urea]: in test [1] (setting [4]), the 50% inhibitory concentration (IC50) worked out at 0.065 µM. The EC50 in test [3] (setting [5]) is 0.147 µM.

With `C[C@H](NC(=O)Nc1ccc(S(=O)(=O)Cc2ccc(CN3CCC(CO)C3)cc2)cc1)c1ccccc1` (stereo partly drawn) [H1314, 1-(4-((4-((3-(hydroxymethyl)pyrrolidin-1-yl)methyl)benzyl)sulfonyl)phenyl)-3-((S)-1-phenylethyl)urea], the IC50 in test [1] (setting [4]) was determined as 3.1 µM. Besides, in test [3] (setting [5]), the EC50 is > 30 µM.

On to `C[C@H](NC(=O)Nc1ccc(S(=O)(=O)Cc2ccc3c(c2)C2CCC3N2C)cc1)c1ccccc1` (stereo partly drawn) [H1325, 1-(4-(((9-methyl-1,2,3,4-tetrahydro-1,4-epiminonaphthalen-6-yl)methyl)sulfonyl)phenyl)-3-((S)-1-phenylethyl)urea], for which the IC50 in test [1] (setting [4]) was 3.83 µM. In test [3] (setting [5]), the EC50 is > 30 µM.

With `CC(NC(=O)Nc1ccc(S(=O)(=O)Cc2ccc3c(c2)CNC3=O)cc1)c1ccccc1` (stereo not shown) [H1292, 1-(4-(((1-oxoisoindolin-5-yl)methyl)sulfonyl)phenyl)-3-(1-phenylethyl)urea], the IC50 in test [1] (setting [4]) is > 30 µM. Besides, the EC50 in test [3] (setting [5]) was > 30 µM.

Turning to `CCc1ccc(Cl)c(C(=O)NC(=O)Nc2ccc(S(=O)(=O)Cc3ccc(CO)cc3)cc2)c1` [H1255, 2-chloro-5-ethyl-N-((4-((4-(hydroxymethyl)benzyl)sulfonyl)phenyl)carbamoyl)benzamide], the IC50 in test [1] (setting [4]) worked out at 2.33 µM. In test [3] (setting [5]), the EC50 is > 30 µM.
